According to PubChem BioAssay (NCI):
“And” between values parts separate entries of the source, which are not always exact repeats. Identical values can stand only once.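 Method: 48-hour compound exposure of cells in 96-well plates, five concentrations, linear interpolation of endpoints. The concentration for 50% growth inhibition is given as GI50. TGI: total growth inhibition.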

What was measured:
Assay in all cases: growth of human tumour cells (NCI), 48 h
[1] = test system: SW-620 colon
[2] = test system: HS 578T breast
[3] = test system: LOX IMVI melanoma
[4] = test system: TK-10 renal
[5] = test system: SK-MEL-5 melanoma
[6] = test system: SK-MEL-28 melanoma
[7] = test system: EKVX NSCLC
[8] = test system: NCI/ADR-RES ovarian
[9] = test system: OVCAR-5 ovarian
[10] = test system: NCI-H226 lung

Compound	GI50 [1]	TGI [1]	GI50 [2]	TGI [2]	GI50 [3]	TGI [3]	GI50 [4]	TGI [4]	GI50 [5]	TGI [5]	GI50 [6]	TGI [6]	GI50 [7]	TGI [7]	GI50 [8]	TGI [8]	GI50 [9]	TGI [9]	GI50 [10]	TGI [10]
CC(C)(C)c1cc(C(=O)Nc2ccccc2C(=O)NCCN)cc(C(C)(C)C)c1	1.87 µM	3.87 µM	2.07 µM	4.63 µM	1.53 µM	2.98 µM	1.68 µM	3.12 µM	1.82 µM	3.27 µM	1.91 µM	3.64 µM	1.76 µM	3.96 µM	1.93 µM	3.89 µM	1.78 µM	3.81 µM	1.96 µM	3.74 µM
CCN(CC)c1ccc(/C=C/C(=O)c2ccc(Nc3nc(Nc4ccccc4)nc(Nc4ccccc4)n3)cc2)cc1	31.2 µM	> 100 µM	4.04 µM	69.5 µM	6.87 µM	> 100 µM	2.39 µM	19.8 µM	1.17 µM	44.9 µM	19.8 µM	> 100 µM	4.07 µM	> 100 µM	4.3 µM	> 100 µM	17.5 µM	> 100 µM	26.9 µM	> 100 µM
COc1ccc(C(O)c2cc3c(N)c(C(=O)Nc4ccc(Cl)cc4)sc3nc2C)cc1 (configuration not stated)	2.62 µM	37.6 µM	1.82 µM	5.3 µM	2.08 µM	13.2 µM	7.85 µM	43.9 µM	2.74 µM	10.2 µM	6.49 µM	57.7 µM	3.88 µM	30.7 µM	3.86 µM	28 µM	3.97 µM	25.5 µM	2.85 µM	9.47 µM
COc1cc(/C=C2\C(=O)N(Cc3ccc(Cl)cc3)c3ccccc32)cc(OC)c1OC	1.78 µM	3.53 µM	1.65 µM	11.1 µM	1.59 µM	3 µM	3.09 µM	30.1 µM	3.98 µM	11.9 µM	1.53 µM	3.07 µM	4.15 µM	34.6 µM	2.85 µM	9.96 µM	3.38 µM	14.5 µM	5.2 µM	19.9 µM
O=C(Nc1ccc(Oc2ccc3nc(NC(=O)c4ccco4)[nH]c3c2)cc1)Nc1cc(C(F)(F)F)ccc1F	1.25 µM	> 17.8 µM	0.446 µM	3.42 µM	0.537 µM	6.04 µM	2.57 µM	12.8 µM	1.16 µM	4.74 µM	2.08 µM	7.04 µM	1.75 µM	> 25 µM	1.71 µM	11.4 µM	1.49 µM	8.63 µM	0.28 µM	4.02 µM
COc1ccc2c(c1)OC(N)=C(C#N)C2c1cc(OC)c(OC)c(OC)c1 (configuration not stated)	0.038 µM	> 100 µM	0.0408 µM	> 100 µM	0.0346 µM	> 100 µM	–	–	0.0317 µM	–	0.0781 µM	> 100 µM	0.251 µM	> 100 µM	0.0199 µM	0.0449 µM	0.059 µM	> 100 µM	0.0573 µM	> 100 µM
CC1CC2C3CCC4=CC(=O)C=CC4(C)C3(F)C(O)CC2(C)C1(O)C(=O)COP(=O)(O)O (configuration not stated)	> 500 µM	> 500 µM	> 500 µM	> 500 µM	> 500 µM	> 500 µM	> 500 µM	> 500 µM	> 500 µM	> 500 µM	> 500 µM	> 500 µM	> 500 µM	> 500 µM	> 500 µM	> 500 µM	> 500 µM	> 500 µM	> 500 µM	> 500 µM
COc1ccc2nc3cc(Cl)ccc3c(NCCCNCCO)c2c1	0.304 µM	2.68 µM	1.48 µM	5.62 µM	0.294 µM	1.12 µM	0.587 µM	3.2 µM	1.55 µM	2.93 µM	1.38 µM	3.06 µM	1.17 µM	4.19 µM	4.03 µM	19.8 µM	0.531 µM	3.28 µM	1.16 µM	3.12 µM
C=C1C[C@H]2C=Nc3cc(OCCCOc4cc5c(cc4OC)C(=O)N4CC(=C)C[C@H]4C=N5)c(OC)cc3C(=O)N2C1	0.0144 µM	> 85.2 µM	–	> 100 µM	–	–	–	< 0.177 µM	–	–	–	0.0436 µM	0.0665 µM and 0.0182 µM	–	0.317 µM and 0.0972 µM	2.84 µM	0.0197 µM and < 0.0205 µM	–	–	0.0482 µM
CC(C)=CCc1cc2c(cc1O)C1=C(C(=O)C3=C(C1=O)S(=O)(=O)CCN3)C(C=C(C)C)O2 (configuration not stated)	0.554 µM	1.76 µM	1.31 µM	8.15 µM	0.492 µM	2.06 µM	4.96 µM	10.4 µM	0.284 µM	0.66 µM	0.541 µM	1.92 µM	1.55 µM	6.93 µM	6.66 µM	16.7 µM	2.73 µM	5.93 µM	1.6 µM	5.22 µM
O=C(Nc1ccc(Oc2ccc(F)cc2)cc1)[C@@H]1C[C@@H](Cc2ccc(F)cc2)CN1C(=O)Cn1ccnn1	12.6 µM	40 µM	11.5 µM	51.9 µM	7.28 µM	22.2 µM	8.74 µM	35.3 µM	9.12 µM	22.6 µM	6.72 µM	20.6 µM	7.79 µM	40.4 µM	12.1 µM	52.5 µM	4.52 µM	17.7 µM	7.79 µM	29 µM
O=C1CC(c2c[nH]c3ccc(F)cc23)C(=O)N1 (configuration not stated)	> 100 µM	> 100 µM	> 100 µM	> 100 µM	> 100 µM	> 100 µM	> 100 µM	> 100 µM	> 100 µM	> 100 µM	> 100 µM	> 100 µM	> 100 µM	> 100 µM	> 100 µM	> 100 µM	> 100 µM	> 100 µM	> 100 µM	> 100 µM
Cn1cc(/C=C\[N+](=O)[O-])c2ccccc21	–	–	19.8 µM	50.5 µM	18 µM	36 µM	78.3 µM	> 100 µM	14.8 µM	31.6 µM	23.3 µM	50.3 µM	> 100 µM	> 100 µM	> 100 µM	> 100 µM	> 100 µM	> 100 µM	53.3 µM	> 100 µM
CCOC(=O)CSc1cc(Cl)c(C)cc1S(=O)(=O)/N=C(/N=C/c1ccc([N+](=O)[O-])s1)NNC	31.1 µM	> 100 µM	28 µM	76.7 µM	17.8 µM	31.6 µM	23 µM	67.6 µM	15.2 µM	29 µM	16.1 µM	29.7 µM	19.7 µM	49.2 µM	12.7 µM	30.7 µM	6.02 µM	38.4 µM	33.1 µM	75.8 µM
Cc1ccccc1N=Nc1c(O)ccc2ccccc12	–	> 100 µM	–	> 100 µM	–	> 100 µM	–	> 100 µM	–	> 100 µM	–	> 100 µM	–	> 100 µM	–	> 100 µM	–	> 100 µM	–	> 100 µM
CC(=O)OCC1OC(n2c(=S)n(-c3ccc([N+](=O)[O-])cc3)c(=O)c3ccccc32)C(OC(C)=O)C(OC(C)=O)C1OC(C)=O (configuration not stated)	18 µM and 30.4 µM	> 100 µM	–	68.5 µM	–	51.8 µM and 31.5 µM	19.9 µM and 40.3 µM	65.2 µM and 75.1 µM	8.06 µM and 25.6 µM	23.3 µM and > 100 µM	31 µM and 20.7 µM	> 82.5 µM and 59.7 µM	18.9 µM and 28.2 µM	> 70 µM and 57.4 µM	–	95.2 µM	32.2 µM and > 100 µM	> 100 µM	10.1 µM and 20.4 µM	58.4 µM and 49 µM
NC(N)=N/N=C/c1c(-c2ccsc2)nc2n1CCS2	33.2 µM	> 100 µM	34.9 µM	> 100 µM	16.3 µM	30.6 µM	26 µM	61.1 µM	20 µM	41.4 µM	–	–	58 µM	> 100 µM	> 100 µM	> 100 µM	19.9 µM	48.2 µM	13 µM	40.1 µM
O=C(O)C1=C/C(=C(/c2ccccc2)c2cc(C(=O)O)c(O)c3ccccc23)c2ccccc2C1=O	–	> 100 µM	–	> 100 µM	–	–	–	> 100 µM	–	> 100 µM	–	> 100 µM	–	> 100 µM	–	> 100 µM	–	> 100 µM	–	> 100 µM
O=C1NC(=NCc2ccccc2Cl)S/C1=C\c1ccc2ncccc2c1	6.61 µM	> 25 µM	> 9.99 µM	> 19.4 µM	8.86 µM	> 25 µM	6.02 µM	> 25 µM	22.4 µM	> 25 µM	> 25 µM	> 25 µM	–	–	> 25 µM	> 25 µM	> 25 µM	> 25 µM	> 18.3 µM	> 25 µM
